Assay results taken from US20220119354A1, “DIAMINO-SUBSTITUTED PYRIDINES AND PYRIMIDINES AS HERBICIDES” (FMC Corporation, priority 2019, published 2022).

Tests used:
Type in all cases: in vivo
rice (Oryza sativa) = assay: Test B flooded paddy test, rice; settings: Flood, 250 g ai/ha, applied to paddy water, 2-leaf stage, visual evaluation after 13 to 15 d
Procedure, shortened: (§1)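 Plants grown to 2-leaf stage. Compounds applied directly into paddy water flooded 3 cm above soil, with that depth kept throughout. After 13–15 d in greenhouse, visual rating versus controls on a 0–100 scale (0 no effect, 100 complete control).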

kochia (Kochia scoparia) [1] = assay: Test A postemergence, kochia; settings: 0 to 100 scale
Procedure, shortened: (§2)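 0–100 visual control rating, ~10 d post-treatment, greenhouse. Pre = directed soil spray on seeded loam/sand; post = spray at 1–2 leaf stage. Surfactant-containing solvent formulation.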

[2] = test system: ryegrass, Italian (Lolium multiflorum); assay: Test A preemergence, Italian ryegrass; settings: 0 to 100 scale
Procedure, shortened: as §2

[3] = test system: ducksalad (Heteranthera limosa); assay: Test B flooded paddy test, ducksalad; settings: Flood, 250 g ai/ha, applied to paddy water, 2-leaf stage, visual evaluation after 13 to 15 d
Procedure, shortened: as §1

[4] = test system: ragweed (common ragweed, Ambrosia elatior); assay: Test A preemergence, ragweed; settings: 0 to 100 scale
Procedure, shortened: as §2

[5] = test system: ryegrass, Italian (Lolium multiflorum); assay: Test A postemergence, Italian ryegrass; settings: 0 to 100 scale
Procedure, shortened: as §2

kochia (Kochia scoparia) [6] = assay: Test A preemergence, kochia; settings: 0 to 100 scale
Procedure, shortened: as §2

[7] = test system: barnyardgrass (Echinochloa crus-galli); assay: Test A preemergence, barnyardgrass; settings: 0 to 100 scale
Procedure, shortened: as §2

[8] = test system: foxtail, giant (Setaria faberii); assay: Test A postemergence, giant foxtail; settings: 0 to 100 scale
Procedure, shortened: as §2

[9] = test system: foxtail, giant (Setaria faberii); assay: Test A preemergence, giant foxtail; settings: 0 to 100 scale
Procedure, shortened: as §2

corn (Zea mays) = assay: Test A postemergence, corn; settings: 0 to 100 scale
Procedure, shortened: as §2

[10] = test system: barnyardgrass (Echinochloa crus-galli); assay: Test B flooded paddy test, barnyardgrass; settings: Flood, 250 g ai/ha, applied to paddy water, 2-leaf stage, visual evaluation after 13 to 15 d
Procedure, shortened: as §1

[11] = test system: sedge, umbrella (small-flower umbrella sedge, Cyperus difformis); assay: Test B flooded paddy test, umbrella sedge; settings: Flood, 250 g ai/ha, applied to paddy water, 2-leaf stage, visual evaluation after 13 to 15 d
Procedure, shortened: as §1

[12] = test system: pigweed (Amaranthus retroflexus); assay: Test A postemergence, pigweed; settings: 0 to 100 scale
Procedure, shortened: as §2

[13] = test system: barnyardgrass (Echinochloa crus-galli); assay: Test A postemergence, barnyardgrass; settings: 0 to 100 scale
Procedure, shortened: as §2

[14] = test system: pigweed (Amaranthus retroflexus); assay: Test A preemergence, pigweed; settings: 0 to 100 scale
Procedure, shortened: as §2

[15] = test system: ragweed (common ragweed, Ambrosia elatior); assay: Test A postemergence, ragweed; settings: 0 to 100 scale
Procedure, shortened: as §2

[16] = test system: wheat (Triticum aestivum); assay: Test A postemergence, wheat; settings: 0 to 100 scale
Procedure, shortened: as §2

[17] = test system: blackgrass (Alopecurus myosuroides); assay: Test A postemergence, blackgrass; settings: 0 to 100 scale
Procedure, shortened: as §2

[18] = test system: galium (catchweed bedstraw, Galium aparine); assay: Test A postemergence, galium; settings: 0 to 100 scale
Procedure, shortened: as §2

| SMILES | Plant response rating, Rice (0 to 100 scale, 0 is no effect, 100 is complete control) (rice (Oryza sativa)) | Plant response rating, Kochia (kochia (Kochia scoparia) [1]; 125 g ai/ha) | Plant response rating, Kochia (kochia (Kochia scoparia) [1]; 500 g ai/ha) | Plant response rating, Ryegrass, Italian ([2]; 125 g ai/ha) | Plant response rating, Ryegrass, Italian ([2]; 500 g ai/ha) | Plant response rating, Ducksalad (0 to 100 scale, 0 is no effect, 100 is complete control) [3] | Plant response rating, Ragweed ([4]; 125 g ai/ha) | Plant response rating, Ragweed ([4]; 500 g ai/ha) | Plant response rating, Ryegrass, Italian ([5]; 125 g ai/ha) | Plant response rating, Ryegrass, Italian ([5]; 500 g ai/ha) | Plant response rating, Kochia (kochia (Kochia scoparia) [6]; 125 g ai/ha) | Plant response rating, Kochia (kochia (Kochia scoparia) [6]; 500 g ai/ha) | Plant response rating, Barnyardgrass ([7]; 125 g ai/ha) | Plant response rating, Barnyardgrass ([7]; 500 g ai/ha) | Plant response rating, Foxtail, Giant ([8]; 125 g ai/ha) | Plant response rating, Foxtail, Giant ([8]; 500 g ai/ha) | Plant response rating, Foxtail, Giant ([9]; 125 g ai/ha) | Plant response rating, Foxtail, Giant ([9]; 500 g ai/ha) | Plant response rating, Corn (corn (Zea mays); 125 g ai/ha) | Plant response rating, Corn (corn (Zea mays); 500 g ai/ha) | further results |
| --- | --- | --- | --- | --- | --- | --- | --- | --- | --- | --- | --- | --- | --- | --- | --- | --- | --- | --- | --- | --- | --- |
| C[C@@H](Nc1ncc(C(F)(F)F)c(N)n1)c1cc2ccc(C(F)(F)F)cc2o1 [Compound 15] | 0 | 40 | 80 | 0 | 70 | 0 | 30 | 90 | 0 | 30 | 40 | 50 | 20 | 70 | 30 | 80 | 20 | 90 | 0 | 20 | Plant response rating, Barnyardgrass (0 to 100 scale, 0 is no effect, 100 is complete control) [10]: 0; Plant response rating, Sedge, Umbrella (0 to 100 scale, 0 is no effect, 100 is complete control) [11]: 0; Plant response rating, Pigweed ([12]; 125 g ai/ha): 90; Plant response rating, Pigweed ([12]; 500 g ai/ha): 90; Plant response rating, Barnyardgrass ([13]; 125 g ai/ha): 30; Plant response rating, Barnyardgrass ([13]; 500 g ai/ha): 30; Plant response rating, Pigweed ([14]; 125 g ai/ha): 80; Plant response rating, Pigweed ([14]; 500 g ai/ha): 100; Plant response rating, Ragweed ([15]; 125 g ai/ha): 20; Plant response rating, Ragweed ([15]; 500 g ai/ha): 40; Plant response rating, Wheat ([16]; 125 g ai/ha): 0; Plant response rating, Wheat ([16]; 500 g ai/ha): 0; Plant response rating, Blackgrass ([17]; 125 g ai/ha): 0; Plant response rating, Blackgrass ([17]; 500 g ai/ha): 30; Plant response rating, Galium ([18]; 125 g ai/ha): 60; Plant response rating, Galium ([18]; 500 g ai/ha): 80 |
| CCc1ccc2oc([C@@H](C)Nc3ncc(C(F)(F)F)c(N)n3)cc2c1 [Compound 17] | 0 | 0 | 0 | 0 | 20 | 0 | 0 | 50 | 0 | 0 | 0 | 0 | 0 | 0 | 20 | 20 | 0 | 20 | 0 | 0 | Plant response rating, Barnyardgrass (0 to 100 scale, 0 is no effect, 100 is complete control) [10]: 0; Plant response rating, Sedge, Umbrella (0 to 100 scale, 0 is no effect, 100 is complete control) [11]: 0; Plant response rating, Pigweed ([12]; 125 g ai/ha): 0; Plant response rating, Pigweed ([12]; 500 g ai/ha): 20; Plant response rating, Barnyardgrass ([13]; 125 g ai/ha): 0; Plant response rating, Barnyardgrass ([13]; 500 g ai/ha): 0; Plant response rating, Pigweed ([14]; 125 g ai/ha): 0; Plant response rating, Pigweed ([14]; 500 g ai/ha): 0; Plant response rating, Ragweed ([15]; 125 g ai/ha): 0; Plant response rating, Ragweed ([15]; 500 g ai/ha): 20; Plant response rating, Wheat ([16]; 125 g ai/ha): 0; Plant response rating, Wheat ([16]; 500 g ai/ha): 0; Plant response rating, Blackgrass ([17]; 125 g ai/ha): 0; Plant response rating, Blackgrass ([17]; 500 g ai/ha): 0; Plant response rating, Galium ([18]; 125 g ai/ha): 0; Plant response rating, Galium ([18]; 500 g ai/ha): 0 |
